Consider 51 compounds from publication PMC11276849, “A Female-Biased Chemosensory Protein PxutCSP19 in the Antennae of Papilio xuthus Tuned to Host Volatiles and Insecticides” (Insects, 2024).

In the assay the target is PxutCSP19 (Papilio xuthus, UniProt A0A194QJK0). Briefly: Fluorescence competitive binding assay (1-NPN displacement), wildtype PxutCSP19. The note with it: for inhibition at 20 µM: read-out: F.D. (fluorescent displacement rate of ligands), Wildtype (WT); for inhibition at 20 µM / F.D. (fluorescent displacement rate of ligands): ligand at 20 μM, PxutCSP19/1-NPN each 2 μM, NB = no binding. From the text: The open reading frame (ORF) of PxutCSP19 was cloned with a PrimeSTAR®® Max DNA Polymerase (TaKaRa, Liaoning, Dalian, China) and gene-specific primers containing restriction enzyme sites (BamH I and Xho I) (Table S2). The PCR products were detected on a 1.5% (w/v) agarose gel, and the expected bands were cut and purified using a HiPure Gel Pure DNA Mini Kit (Magen, Guangzhou, China). Next, BamH I and Xho I were used to digest the PxutCSP19 products and pET-30a (+) plasmids, followed by purification. A T4 DNA ligase (Thermo Fisher Scientific, Waltham, MA, USA) was applied to the construction of the recombinant plasmids pET-30a (+)/PxutCSP19. After being confirmed by sequencing, the plasmids were transformed into BL21 (DE3) competent cells so as to express recombinant proteins with 1.0 mM isopropyl β-D-thiogalactoside (IPTG). Because this recombinant protein pET-30a (+)/PxutCSP19 was insoluble, we applied a protein denaturation–renaturation approach to purify PxutCSP19 with an affinity chromatography technique, in which the denaturation buffer included 8 M urea and 1.0 mM β-mercaptoethanol.
In order to investigate the ligand-binding properties of PxutCSP19 to host odorants and insecticides, we first asked whether this fluorescent probe 1-NPN was available for the binding of PxutCSP19. To calculate the binding ability of PxutCSP19 to 1-NPN, we titrated different final concentrations of 1-NPN (2~20 μM) into Tris-HCl buffer (pH 7.4) containing 2 μM PxutCSP19. The binding constant (K1-NPN) of 1-NPN to this protein was determined with GraphPad Prism 7 (GraphPad Software Inc., San Diego, CA), as previously described. The solution was excited at 337 nm and the emission peak was monitored at 414 nm on an RF-5301PC spectrofluorometer (Shimadzu, Kyoto, Japan) using a quartz micro-cuvette filled with a 100 μL mixture, with 5 nm excitation and emission slit widths. If the host odorant molecules could displace more than 40% of the 1-NPN fluorescence from the binding cavity of PxutCSP19, the compounds would be continuously added up to 36 μM with triplicates. For the binding experiments, each compound would be added into the PxutCSP19/1-NPN (each 2 μM) complex with final concentrations of 2~20 μM. […] We used the Ki values to compare the binding affinities of various ligands with the equation: Ki = [IC50]/(1 + [1-NPN]/K1-NPN), where IC50 represents the ligand concentrations displacing one half of the initial protein/1-NPN fluorescence, and [1-NPN] is the free concentration of 1-NPN at 2 μM.

Where [1] appears, read: Wildtype (WT), ligand up to 20 μM or 36 μM, displacing half of protein/1-NPN fluorescence, read-out: IC50.

Structures are written as SMILES. Read-outs that look alike come from different tables or passages of the source.

Chain of PxutCSP19 (A0A194QJK0 entry or part of it): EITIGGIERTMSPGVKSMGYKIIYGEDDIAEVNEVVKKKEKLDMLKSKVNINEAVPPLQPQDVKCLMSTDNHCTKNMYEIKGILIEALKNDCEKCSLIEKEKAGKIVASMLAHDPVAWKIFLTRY

As for `C=CC(C)(O)CCC=C(C)CCC=C(C)C` (mixture of isomers) [Nerolidol], the IC50 is more than 20 µM and the inhibition at 20 µM was 12.4%.

Regarding `CCCCCCO` [1-Hexanol], the concentration for half-maximal inhibition (IC50) is more than 20 µM and the inhibition at 20 µM was 39%.

Turning to `CC1=CCC2C(C1)C2(C)C` (stereo not drawn) [3-Carene], the IC50 is more than 20 µM and the inhibition at 20 µM is 35.1%.

On to `CC1=CCC(O)(C(C)C)CC1` (stereo not drawn) [4-Terpineol], for which the 50% inhibitory concentration (IC50) is more than 36 µM and the inhibition at 20 µM was more than 40%. For the same compound, for the setting “wildtype, ligand at 36 μM”, the 1-NPN fluorescence displaced result is listed as “less than 50%”.

As to `CC1=CC[C@@H]2C[C@H]1C2(C)C` [(1R)-(+)-α-Pinene], the 50% inhibitory concentration (IC50) was more than 20 µM and the inhibition at 20 µM is 38.4%.

`CCC/C=C/CO` [(E)-2-Hexen-1-ol]: the IC50 is more than 20 µM and the inhibition at 20 µM was 35.6%.

`CCC/C=C/C=O` [(E)-2-Hexenal]: the IC50 was more than 20 µM and the inhibition at 20 µM is 33.8%.

Regarding `CC/C=C\CCO` [(Z)-3-Hexen-1-ol], the IC50 is more than 20 µM and the inhibition at 20 µM was determined as 35.8%.

With `COP(=O)(NC(C)=O)SC` (stereo not drawn) [Acephate, reference compound], the IC50 is more than 20 µM and the inhibition at 20 µM was 37.1%.

On to `C/C(=N\C#N)N(C)Cc1ccc(Cl)nc1` [Acetamiprid, reference compound], for which the 50% inhibitory concentration (IC50) was more than 20 µM and the inhibition at 20 µM stood at 42.9%.

As to `C/C=C(\C)C(=O)O[C@H]1C[C@@H](OC(C)=O)[C@@]2(C(=O)OC)CO[C@H]3[C@@H](O)[C@@](C)([C@]45O[C@@]4(C)[C@H]4C[C@@H]5O[C@@H]5OC=C[C@@]54O)[C@H]4[C@]1(CO[C@]4(O)C(=O)OC)[C@@H]32` [Azadirachtin, reference compound], the IC50 was more than 20 µM and the inhibition at 20 µM turned out to be 34.5%.

As to `O=Cc1ccccc1` [Benzaldehyde], the half-maximal inhibitory concentration (IC50) was more than 20 µM and the inhibition at 20 µM came to 36.9%.

In the case of `C=C1C2CCC(C2)C1(C)C` (stereo not drawn) [Camphene], the IC50 was more than 20 µM and the inhibition at 20 µM turned out to be 34.5%.

Take `Cc1ccc(C(C)C)cc1O` [Carvacrol]: the IC50 was more than 20 µM and the inhibition at 20 µM was determined as 37.4%.

Consider `CNC(=O)c1cc(Cl)cc(C)c1NC(=O)c1cc(Br)nn1-c1ncccc1Cl` [Chlorantraniliprole, reference compound], for which the IC50 is more than 20 µM and the inhibition at 20 µM is 43.6%.

In the case of `O=C(NC(=O)c1ccccc1Cl)Nc1ccc(Cl)cc1` [Chlorbenzuron, reference compound], the “F.D. (fluorescent displacement rate of ligands)” value (Wildtype (WT)) was 42.75%. Also, the IC50 under setting [1] was more than 20 µM.

In the case of `CC(C)=CCC/C(C)=C/C=O` [Citral], the IC50 is more than 20 µM and the inhibition at 20 µM is 39.7%.

For the compound `CC(C)=CCC[C@@H](C)CC=O` [Citronellal], the “F.D. (fluorescent displacement rate of ligands)” value (Wildtype (WT)) stood at 34.20%. The IC50 under setting [1] was more than 20 µM.

Regarding `CCCCCCCCCC=O` [Decanal], the IC50 was more than 20 µM and the inhibition at 20 µM amounted to 28.7%.

With `CC1(C)[C@H](C(=O)O[C@H](C#N)c2cccc(Oc3ccccc3)c2)[C@@H]1C=C(Br)Br` [Deltamethrin, reference compound], the IC50 was more than 20 µM and the inhibition at 20 µM came out at 39.3%.

Take `O=C(NC(=O)c1c(F)cccc1F)Nc1ccc(Cl)cc1` [Diflubenzuron, reference compound]: the IC50 is more than 20 µM and the inhibition at 20 µM worked out at 27%.

With `CCOC(C)=O` [Ethyl acetate], the IC50 was more than 20 µM and the inhibition at 20 µM amounted to 37.6%.

In the case of `CCCC(=O)OCC` [Ethyl butyrate], the half-inhibitory concentration (IC50) was more than 20 µM and the inhibition at 20 µM turned out to be 28.7%.

As for `CC(C)=CCC/C(C)=C/CC/C(C)=C/CO` [Farnesol], the IC50 was more than 20 µM and the inhibition at 20 µM worked out at 27%.

In the case of `N#Cc1nn(-c2c(Cl)cc(C(F)(F)F)cc2Cl)c(N)c1[S+]([O-])C(F)(F)F` (stereo not drawn) [Fipronil, reference compound], the IC50 was more than 20 µM and the inhibition at 20 µM turned out to be 37.5%.

As for `CC(C)=CCC/C(C)=C/CO` [Geraniol], the inhibition at 20 µM came to 39%.

As to `CC(=O)OC/C=C(\C)CCC=C(C)C` [Geranyl acetate], the IC50 was more than 20 µM and the inhibition at 20 µM amounted to 33.3%.

`CCCCCC=O` [Hexanal]: the IC50 is more than 20 µM and the inhibition at 20 µM came out at 21.1%.

Take `O=[N+]([O-])NC1=NCCN1Cc1ccc(Cl)nc1` [Imidacloprid, reference compound]: the IC50 was more than 20 µM and the inhibition at 20 µM stood at 41.7%.

Turning to `c1ccc2[nH]ccc2c1` [Indole], the 50% inhibitory concentration (IC50) was more than 20 µM and the inhibition at 20 µM was 39%.

Consider `C=C(C)[C@H]1CC=C(C)CC1` [Limonene], for which the “F.D. (fluorescent displacement rate of ligands)” value (Wildtype (WT)) is 20.36%. For the same compound, the IC50 under setting [1] was more than 20 µM.

In the case of `O=C1CCC[C@@H]2[C@H]3CCCN4CCC[C@@H](CN12)[C@@H]34` [Matrine, reference compound], the IC50 is more than 20 µM and the inhibition at 20 µM was determined as 40%.

With `CNC(=O)ON=C(C)SC` [Methomyl, reference compound], the half-inhibitory concentration (IC50) is more than 20 µM and the inhibition at 20 µM is 45.4%.

Consider `COC(=O)c1ccccc1C` [Methyl o-toluate], for which the “F.D. (fluorescent displacement rate of ligands)” value (Wildtype (WT)) was 37.28%. Moreover, the IC50 under setting [1] was more than 20 µM.

Consider `C=CC(=C)CCC=C(C)C` [Myrcene], for which the IC50 was more than 20 µM and the inhibition at 20 µM was found to be 32.4%.

On to `CCCCCCCCC=O` [Nonanal], for which the concentration for half-maximal inhibition (IC50) was more than 20 µM and the inhibition at 20 µM stood at 29.3%.

As for `CCCCCCCC=O` [Octanal], the IC50 was more than 20 µM and the inhibition at 20 µM amounted to 22.8%.

Consider `OCCc1ccccc1` [Phenethyl alcohol], for which the IC50 was more than 20 µM and the inhibition at 20 µM was 39.7%.

As for `O=CCc1ccccc1` [Phenylacetaldehyde], the IC50 was more than 20 µM and the inhibition at 20 µM amounted to 27.3%.

Regarding `CCCSP(=O)(OCC)Oc1ccc(Br)cc1Cl` (stereo not drawn) [Profenofos, reference compound], the IC50 was more than 20 µM and the inhibition at 20 µM was 41%.

Regarding `CC1(C)[C@H]2O[C@H]2[C@H]2[C@](C)(O)[C@@H]3CC[C@@H]4[C@@H](O)[C@@]3(C[C@@H](O)[C@@]21O)C[C@@]4(C)O` [Rhodojaponin III, reference compound], for the setting “Wildtype (WT)”, the “F.D. (fluorescent displacement rate of ligands)” value is 38.52%. Also, the half-maximal inhibitory concentration (IC50) under setting [1] is more than 20 µM.

`C=C1CCC2(C(C)C)CC12` (stereo not drawn) [Sabinene]: the IC50 was more than 20 µM and the inhibition at 20 µM came to 33.5%.

For `CCc1ccc(C(=O)NN(C(=O)c2cc(C)cc(C)c2)C(C)(C)C)cc1` [Tebufenozide, reference compound], the IC50 was more than 20 µM and the inhibition at 20 µM came to 48.5%.

With `CN1COCN(Cc2cnc(Cl)s2)/C1=N\[N+](=O)[O-]` [Thiamethoxam, reference compound], the 50% inhibitory concentration (IC50) is more than 20 µM and the inhibition at 20 µM is 44.6%.

Turning to `CS/C(C)=N\OC(=O)N(C)SN(C)C(=O)O/N=C(\C)SC` [Thiodicarb, reference compound], the 50% inhibitory concentration (IC50) is more than 20 µM and the inhibition at 20 µM came out at 37.4%.

With `COP(=O)(OC)C(O)C(Cl)(Cl)Cl` (stereo not drawn) [Trichlorphon, reference compound], the “F.D. (fluorescent displacement rate of ligands)” value (Wildtype (WT)) is on record as 33.61%. In addition, under setting [1], the IC50 was more than 20 µM.

For `O=C(NC(=O)c1ccccc1Cl)Nc1ccc(OC(F)(F)F)cc1` [Triflumuron, reference compound], the IC50 is more than 20 µM and the inhibition at 20 µM is 28%.

For the compound `CCCCCCCCCCC=O` [Undecanal], the IC50 is more than 20 µM and the inhibition at 20 µM was found to be 27.7%.

For the compound `Cc1ccc(C(C)C)cc1` [p-Isopropyl toluene], the “F.D. (fluorescent displacement rate of ligands)” value (Wildtype (WT)) worked out at 32.32%. In addition, the IC50 under setting [1] was more than 20 µM.

For the compound `C/C1=C\CC/C(C)=C/CC(C)(C)/C=C/C1` [α-Caryophyllene], the “F.D. (fluorescent displacement rate of ligands)” value (Wildtype (WT)) amounted to 7.48%. Also, the half-maximal inhibitory concentration (IC50) under setting [1] is more than 20 µM.

In the case of `CC1(C)C(C=C(Cl)Cl)C1C(=O)OC(C#N)c1cccc(Oc2ccccc2)c1` (stereo not drawn) [α-Cypermethrin, reference compound], the IC50 was more than 20 µM and the inhibition at 20 µM stood at 5.65%.

What is called IC50 is the point on the concentration scale where inhibition reaches its midpoint.
